Test results as given in PubChem BioAssay (NCI).
Values joined by “and” are separate entries in the source; they are usually repeats but may differ in a detail not shown here. Equal values may be shown once.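 Five concentrations, 48 hours, 96-well plates. At the GI50, growth is halved. TGI denotes the concentration required for complete inhibition of growth.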

Legend:
Assay in all cases: growth of human tumour cells (NCI), 48 h
BT-549 breast = system: BT-549 breast
MOLT-4 leukemia = system: MOLT-4 leukemia
HCT-15 colon = system: HCT-15 colon
OVCAR-8 ovarian = system: OVCAR-8 ovarian
OVCAR-5 ovarian = system: OVCAR-5 ovarian
786-0 renal = system: 786-0 renal
SF-268 CNS = system: SF-268 CNS
SNB-75 CNS = system: SNB-75 CNS
HL-60(TB) leukemia = system: HL-60(TB) leukemia
NCI-H226 lung = system: NCI-H226 lung
MCF7 breast = system: MCF7 breast
PC-3 prostate = system: PC-3 prostate
NCI-H522 lung = system: NCI-H522 lung
COLO 205 colon = system: COLO 205 colon
ACHN renal = system: ACHN renal
A549 NSCLC = system: A549 NSCLC
NCI-H23 lung = system: NCI-H23 lung
SK-MEL-2 melanoma = system: SK-MEL-2 melanoma
SW-620 colon = system: SW-620 colon
MALME-3M melanoma = system: MALME-3M melanoma
HT29 colon = system: HT29 colon
SK-OV-3 ovarian = system: SK-OV-3 ovarian
HS 578T breast = system: HS 578T breast
SNB-19 CNS = system: SNB-19 CNS
UACC-257 melanoma = system: UACC-257 melanoma
HCT-116 colon = system: HCT-116 colon
MDA-MB-231 breast = system: MDA-MB-231 breast
CCRF-CEM leukemia = system: CCRF-CEM leukemia
HOP-92 NSCLC = system: HOP-92 NSCLC
KM12 colon = system: KM12 colon
UO-31 renal = system: UO-31 renal
RXF 393 renal = system: RXF 393 renal
CAKI-1 renal = system: CAKI-1 renal
U251 CNS = system: U251 CNS
TK-10 renal = system: TK-10 renal
RPMI-8226 leukemia = system: RPMI-8226 leukemia
HCC-2998 colon = system: HCC-2998 colon
M14 melanoma = system: M14 melanoma
SF-295 CNS = system: SF-295 CNS
EKVX NSCLC = system: EKVX NSCLC
SF-539 CNS = system: SF-539 CNS
LOX IMVI melanoma = system: LOX IMVI melanoma
SR leukemia = system: SR leukemia
SK-MEL-28 melanoma = system: SK-MEL-28 melanoma
T-47D breast = system: T-47D breast
SN12C renal = system: SN12C renal
HOP-62 NSCLC = system: HOP-62 NSCLC
SK-MEL-5 melanoma = system: SK-MEL-5 melanoma
OVCAR-4 ovarian = system: OVCAR-4 ovarian
OVCAR-3 ovarian = system: OVCAR-3 ovarian
MDA-MB-435 = system: MDA-MB-435
K-562 leukemia = system: K-562 leukemia
IGROV1 ovarian = system: IGROV1 ovarian
NCI-H460 lung = system: NCI-H460 lung
DU-145 prostate = system: DU-145 prostate
A498 renal = system: A498 renal
UACC-62 melanoma = system: UACC-62 melanoma
NCI/ADR-RES ovarian = system: NCI/ADR-RES ovarian

CC(=O)O[C@H]1C[C@H](O[C@H]2[C@@H](O)C[C@H](O[C@H]3[C@@H](O)C[C@H](O[C@H]4CC[C@@]5(C)C(CCC6C5C[C@@H](O)[C@]5(C)[C@@H](C7=CC(=O)OC7)CC[C@]65O)C4)O[C@@H]3C)O[C@@H]2C)O[C@H](C)[C@H]1O[C@@H]1O[C@H](CO)[C@@H](O)[C@H](O)[C@H]1O (some centres undefined)
GI50 (BT-549 breast): 39.4 nM | TGI (BT-549 breast): 129 nM | GI50 (MOLT-4 leukemia): 11.7 nM and 25.7 nM | TGI (MOLT-4 leukemia): 28.8 nM and 65.6 nM | GI50 (HCT-15 colon): 58.7 nM and 200 nM | TGI (HCT-15 colon): 174 nM and 465 nM | GI50 (OVCAR-8 ovarian): 38.5 nM and 159 nM | TGI (OVCAR-8 ovarian): 104 nM and 385 nM | GI50 (OVCAR-5 ovarian): 65.8 nM and 175 nM | TGI (OVCAR-5 ovarian): 140 nM and 327 nM | GI50 (786-0 renal): 25.1 nM and 105 nM | TGI (786-0 renal): 89.4 nM and 223 nM | GI50 (SF-268 CNS): 18.5 nM and 51.1 nM | TGI (SF-268 CNS): 73.7 nM and 165 nM | GI50 (SNB-75 CNS): 57.7 nM and 138 nM | TGI (SNB-75 CNS): 147 nM and 304 nM | GI50 (HL-60(TB) leukemia): 11.2 nM | TGI (HL-60(TB) leukemia): 28.3 nM | GI50 (NCI-H226 lung): 174 nM | TGI (NCI-H226 lung): 314 nM | GI50 (MCF7 breast): 24.8 nM and 57.5 nM | TGI (MCF7 breast): 189 nM and 694 nM | GI50 (PC-3 prostate): 28.7 nM and 103 nM | TGI (PC-3 prostate): 225 nM and 590 nM | GI50 (NCI-H522 lung): 10.7 nM and 37.5 nM | TGI (NCI-H522 lung): 37.6 nM and 126 nM | GI50 (COLO 205 colon): 284 nM | TGI (COLO 205 colon): 676 nM | GI50 (ACHN renal): 20.4 nM and 44 nM | TGI (ACHN renal): 69 nM and 179 nM | GI50 (A549 NSCLC): 9.03 nM and 31.9 nM | TGI (A549 NSCLC): 16.5 nM and 108 nM | GI50 (NCI-H23 lung): 15.1 nM and 46.8 nM | TGI (NCI-H23 lung): 58.6 nM and 206 nM | GI50 (SK-MEL-2 melanoma): 315 nM | TGI (SK-MEL-2 melanoma): 1000 nM | GI50 (SW-620 colon): 23.8 nM and 63.1 nM | TGI (SW-620 colon): 86 nM and 302 nM | GI50 (MALME-3M melanoma): 21.7 nM and 183 nM | TGI (MALME-3M melanoma): 130 nM and 469 nM | GI50 (HT29 colon): 24.6 nM and 120 nM | TGI (HT29 colon): 86.8 nM and 395 nM | GI50 (SK-OV-3 ovarian): 28.7 nM and 160 nM | TGI (SK-OV-3 ovarian): 99.6 nM and 314 nM | TGI (HS 578T breast): 1640 nM | GI50 (SNB-19 CNS): 69.2 nM and 212 nM | TGI (SNB-19 CNS): 256 nM and 557 nM | GI50 (UACC-257 melanoma): 85.2 nM and 347 nM | TGI (UACC-257 melanoma): 162 nM and 1180 nM | GI50 (HCT-116 colon): 18.2 nM and 39.4 nM | TGI (HCT-116 colon): 64 nM and 134 nM | GI50 (MDA-MB-231 breast): 238 nM and 234 nM | TGI (MDA-MB-231 breast): 1350 nM and 652 nM | GI50 (CCRF-CEM leukemia): 17.3 nM and 33.3 nM | TGI (CCRF-CEM leukemia): 49.7 nM and 180 nM | GI50 (HOP-92 NSCLC): 78.1 nM and 158 nM | TGI (HOP-92 NSCLC): 243 nM and 612 nM | GI50 (KM12 colon): 31.9 nM and 161 nM | TGI (KM12 colon): 140 nM and 382 nM | GI50 (UO-31 renal): 64.8 nM and 179 nM | TGI (UO-31 renal): 237 nM and 343 nM | GI50 (RXF 393 renal): 15.8 nM and 63.6 nM | TGI (RXF 393 renal): 63.6 nM and 385 nM | GI50 (CAKI-1 renal): 29.4 nM and 81.3 nM | TGI (CAKI-1 renal): 183 nM and 345 nM | GI50 (U251 CNS): 29.8 nM and 113 nM | TGI (U251 CNS): 91 nM and 234 nM | GI50 (TK-10 renal): 14.6 nM and 145 nM | GI50 (RPMI-8226 leukemia): 68.2 nM and 200 nM | TGI (RPMI-8226 leukemia): 315 nM and 955 nM | GI50 (HCC-2998 colon): 73 nM and 242 nM | TGI (HCC-2998 colon): 210 nM and 678 nM | GI50 (M14 melanoma): 103 nM and 212 nM | TGI (M14 melanoma): 244 nM and 399 nM | GI50 (SF-295 CNS): 26.8 nM and 73.7 nM | TGI (SF-295 CNS): 286 nM and 581 nM | GI50 (EKVX NSCLC): 22.4 nM and 56.6 nM | TGI (EKVX NSCLC): 83.6 nM and 202 nM | GI50 (SF-539 CNS): 21.7 nM and 105 nM | TGI (SF-539 CNS): 78.3 nM and 225 nM | GI50 (LOX IMVI melanoma): 26.1 nM and 81.8 nM | TGI (LOX IMVI melanoma): 93.7 nM and 238 nM | GI50 (SR leukemia): 15.1 nM and 44 nM | TGI (SR leukemia): 97.7 nM and 281 nM | GI50 (SK-MEL-28 melanoma): 115 nM and 215 nM | TGI (SK-MEL-28 melanoma): 237 nM and 496 nM | GI50 (T-47D breast): 22.8 nM and 166 nM | TGI (T-47D breast): 167 nM and 576 nM | GI50 (SN12C renal): 20 nM and 47.1 nM | TGI (SN12C renal): 581 nM and 413 nM | GI50 (HOP-62 NSCLC): 19.6 nM and 65.1 nM | TGI (HOP-62 NSCLC): 69.1 nM and 189 nM | GI50 (SK-MEL-5 melanoma): 18.7 nM and 109 nM | TGI (SK-MEL-5 melanoma): 69.9 nM and 233 nM | GI50 (OVCAR-4 ovarian): 122 nM | TGI (OVCAR-4 ovarian): 442 nM | GI50 (OVCAR-3 ovarian): 18.6 nM and 93.2 nM | TGI (OVCAR-3 ovarian): 65.6 nM and 218 nM | GI50 (MDA-MB-435): 110 nM and 275 nM | TGI (MDA-MB-435): 307 nM and 893 nM | GI50 (K-562 leukemia): 27.2 nM | TGI (K-562 leukemia): 204 nM | GI50 (IGROV1 ovarian): 68.5 nM and 229 nM | TGI (IGROV1 ovarian): 1370 nM and 1310 nM | GI50 (NCI-H460 lung): 16.5 nM and 34.5 nM | TGI (NCI-H460 lung): 55.7 nM and 135 nM | GI50 (DU-145 prostate): 13.8 nM and 110 nM | TGI (DU-145 prostate): 38.7 nM and 232 nM | GI50 (A498 renal): 78 nM | TGI (A498 renal): 412 nM | GI50 (UACC-62 melanoma): 93.8 nM and 173 nM | TGI (UACC-62 melanoma): 196 nM and 343 nM | GI50 (NCI/ADR-RES ovarian): 23.3 nM and 76.4 nM | TGI (NCI/ADR-RES ovarian): 86.1 nM and 250 nM
